The record followed here is US6413952B1, “Agonizing dimeric cell-surface receptors with a receptor binding moiety and chelating metal” (SmithKline Beecham Corporation, priority 1997, dated 2002).

“Also recorded” adds a separate entry of the source.

The target in assay [1] is T1, G-CSF receptor (Mus musculus, UniProt P40223).
T1 construct: they express endogenous G-CSF receptors; endogenous in cells; host or cells: NFS60 murine myeloid cell line with a G-CSF-responsive luciferase reporter
T1 sequence (P40223 26-837): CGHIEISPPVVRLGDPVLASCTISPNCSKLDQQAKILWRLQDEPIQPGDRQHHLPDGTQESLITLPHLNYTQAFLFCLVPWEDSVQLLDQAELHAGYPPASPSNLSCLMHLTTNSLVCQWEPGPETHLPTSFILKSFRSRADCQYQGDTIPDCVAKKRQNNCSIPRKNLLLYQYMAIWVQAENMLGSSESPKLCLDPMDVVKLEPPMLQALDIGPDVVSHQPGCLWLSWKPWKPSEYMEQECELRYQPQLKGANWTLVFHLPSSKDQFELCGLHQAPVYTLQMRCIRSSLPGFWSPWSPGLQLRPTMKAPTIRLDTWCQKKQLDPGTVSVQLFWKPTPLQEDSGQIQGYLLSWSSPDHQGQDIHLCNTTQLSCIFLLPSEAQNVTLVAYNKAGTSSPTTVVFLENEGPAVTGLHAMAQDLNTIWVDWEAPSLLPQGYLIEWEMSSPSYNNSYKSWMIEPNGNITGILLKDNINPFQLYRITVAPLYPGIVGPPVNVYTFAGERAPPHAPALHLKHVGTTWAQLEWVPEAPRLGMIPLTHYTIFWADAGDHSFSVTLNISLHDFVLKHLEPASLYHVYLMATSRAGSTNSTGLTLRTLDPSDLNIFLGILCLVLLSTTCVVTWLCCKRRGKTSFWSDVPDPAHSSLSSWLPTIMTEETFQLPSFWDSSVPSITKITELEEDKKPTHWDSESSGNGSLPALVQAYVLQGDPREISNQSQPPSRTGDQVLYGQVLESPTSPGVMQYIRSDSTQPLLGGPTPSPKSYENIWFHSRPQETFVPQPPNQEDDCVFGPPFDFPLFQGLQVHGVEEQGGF
In words: Luciferase assay on NFS60 cells in the presence of EDTA / metal chlorides. To be noted: for effect of EDTA on agonist (luciferase) activity: EDTA 1.2 and 5 millimolar, media contained 1-5 uM zinc(II) (FIGS. 3, 4). The format is cell-based, murine. As for the experimental part: FIG. 3 is an analysis of the effect of ethylenediaminetetraacetic acid (as used herein—EDTA) on the activity of Compound 1a (from Example 1) in NFS60 cells. Shown are luciferase response curves of Compound 1a at the indicated concentrations and in the presence of various concentrations of EDTA. […] The media in this assay contained a small amount (1-5 uM) of zinc(II).
FIG. 4 is an analysis of the effect of EDTA on the activity of recombinant G-CSF on NFS60 cells. Shown are luciferase response curves of recombinant G-CSF at the indicated concentrations and in the presents of various concentrations of EDTA. EDTA at both 1.2 and 5 millimolar has little effect on the activity of recombinant G-CSF in the assay.
FIGS. 5 and 6 depict an analysis of the activity of metal chlorides alone on the basal luciferase level of NFS60 cells. Shown are luciferase response curves of the indicated metal chlorides at various concentrations. None of the metals have a meaningful effect on the basal luciferase levels at concentrations equal or less than 10 micromolar.
FIGS. 7 and 8 show an analysis of the effect of metal chlorides on the EDTA depleted activity of Compound 1a on NFS60 cells. Shown are luciferase response curves as effected by the indicated metal chlorides. […] None of the other metals tested could overcome the inhibitory effect of EDTA.
In order to determine the requisiteness of metal chelation of small organic molecules to agonist activity at dimeric cell-surface receptors, the above luciferase assay was performed on the G-CSF receptor in the presence of EDTA. EDTA is a strong metal chelator and had as its only effect, the removal of zinc and other metals from the ligand-receptor interaction.

In assay [2] the target is T1, G-CSF receptor. In words: Luciferase reporter gene assay on G-CSF-responsive NFS60 cell line. The format is cell-based, murine. The settings on record: NFS60 cells, absence of zinc (FIG. 1). As for the experimental part: Activity of compound 1a is below the threshold of 150% over background. The study was performed as a Luciferase assay configured on the G-CSF-responsive NFS60 cell line as described in Tian et al., Science 281, 257-259 (1998). The experiments shown in FIGS. 2-8 used the same NFS60 cell line.
Compounds of the present invention are tested for potency as agonist of a dimeric cell-surface receptor in a Luciferase reporter gene assay such as described in Tian et al., Science 281, 257-259 (1998). For example, for G-CSF NFS60 cells (Holmes, et al., Proc. Natl. Acad. Sci. USA 82: 6687-6691 (1985)) are selected because they express endogenous G-CSF receptors closely matching the pattern of STAT (signal transducers and activators of transcription) activation observed in primary murine and human bone marrow cells.

`c1ccc(C23NC(=Nc4nc5ccccc5[nH]4)NC2(c2ccccn2)NC(=Nc2nc4ccccc4[nH]2)N3)nc1` (stereo not shown) [Compound 1a, 2,5-Bis[2-benzimidazolylimino]-3a,6a-bis(2-pyridyl)-1,2,3,3a,4,5,6,6a-octahydroimidazo[4,5-d]imidazole]: in assay [1], the “effect of EDTA on agonist (luciferase) activity” value was “antagonized the activity; also recorded: abrogated”. Also, in assay [2], the “luciferase activity over background” value is listed as below 150%.
Regarding zinc (II) [reference compound], the “effect of metal chlorides on the EDTA depleted luciferase activity of Compound 1a” value in assay [1] (50 micromolar EDTA, metal 0.5-10 micromolar (FIGS. 7, 8)) is reported as “can overcome the inhibition in luciferase activity”.

B1: recombinant G-CSF: the natural ligand (i.e. G-CSF or recombinant G-CSF) of the G-CSF receptor (protein, UniProt P09919 31-207, looked up)
Granulocyte …: TPLGPASSLPQSFLLKCLEQVRKIQGDGAALQEKLVSECATYKLCHPEELVLLGHSLGIPWAPLSSCPSQALQLAGCLSQLHSGLFLYQGLLQALEGISPELGPTLDTLQLDVADFATTIWQQMEELGMAPALQPTQGAMPAFASAFQRRAGGVLVASHLQSFLEVSYRVLRHLAQP
In the case of B1, the “effect of EDTA on agonist (luciferase) activity” value in assay [1] is given as “little effect; also recorded: not mediated by metal ions”.
